Assay results published in US20210308286A1 (The Johns Hopkins University, priority 2018, published 2021).
Where two headings read alike, the source gives them in different places. Non-standard residues stand in square brackets, D forms with d. Residues, ends and D or L forms follow the SMILES beside them. ξ: configuration not given here. *: point of attachment. X1 = C=Cc1c(C)c2cc3nc(c4c5[nH]c(cc6nc(cc1[nH]2)C(C)=C6CC)c(C)c5C(=O)C4)[C@@H](CCC(=O)*)[C@H]3C; X2 = O=C(O)CC[C@H](NC(=O)N[C@@H](CCCCNC(=O)CCCCCCC(=O)*)C(=O)O)C(=O)O; ξE = NC(CCC(=O)O)C(=O)O; ξD = NC(CC(=O)O)C(=O)O; ξK = NCCCCC(N)C(=O)O; ξV = CC(C)C(N)C(=O)O; ξS = NC(CO)C(=O)O

Tests used:
PSMA [1] = target: T1, PSMA (Homo sapiens, UniProt Q04609); experiment: biochemical
T1 construct: The amount of glutamate released from NAAG hydrolysis by the LNCaP lysates was determined; endogenous in cells; host or cells: LNCaP cell lysate
Target sequence in this assay (Q04609 whole entry, looked up): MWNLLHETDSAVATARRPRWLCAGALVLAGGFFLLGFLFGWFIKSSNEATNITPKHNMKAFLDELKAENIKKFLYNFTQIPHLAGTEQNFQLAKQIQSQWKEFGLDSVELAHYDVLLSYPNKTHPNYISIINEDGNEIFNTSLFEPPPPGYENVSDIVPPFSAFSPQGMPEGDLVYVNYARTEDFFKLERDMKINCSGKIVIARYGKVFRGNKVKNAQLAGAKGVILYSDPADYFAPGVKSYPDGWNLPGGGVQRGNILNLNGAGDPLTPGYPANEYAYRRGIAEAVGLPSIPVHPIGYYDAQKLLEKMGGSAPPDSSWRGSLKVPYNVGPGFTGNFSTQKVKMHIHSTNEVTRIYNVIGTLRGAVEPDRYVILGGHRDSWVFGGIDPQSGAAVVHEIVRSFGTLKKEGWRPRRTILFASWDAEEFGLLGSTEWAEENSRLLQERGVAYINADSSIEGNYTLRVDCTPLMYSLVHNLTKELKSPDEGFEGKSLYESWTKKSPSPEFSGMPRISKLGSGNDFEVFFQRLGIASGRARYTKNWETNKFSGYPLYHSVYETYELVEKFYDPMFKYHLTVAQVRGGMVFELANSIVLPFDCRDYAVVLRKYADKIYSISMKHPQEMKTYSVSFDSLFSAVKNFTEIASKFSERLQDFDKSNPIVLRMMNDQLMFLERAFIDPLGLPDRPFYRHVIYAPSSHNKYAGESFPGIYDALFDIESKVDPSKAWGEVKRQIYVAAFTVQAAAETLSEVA

[2] = system: PSMA+ (PC3-ML-1124) and PSMA− (PC3-ML-1117) metastatic nodules; experiment: Fluorescence detection of prostate metastasis; format: in vivo, mice; conditions: 20 nmol via tail vein, 24 hours post-injection
[3] = Plasma blood clearance (pharmacokinetics) after intravenous injection; format: in vivo, BALB/c mice; conditions: for half-life: BALB/c, 20 nmol per animal, 20 nmol intravenous, plasma fluorescence over 48 hours, n=5
[4] = system: PSMA+ PC3 PIP orthotopic prostate tumor; experiment: ^64Cu-LC-Pyro PET/CT and gamma-counting biodistribution, PSMA+ orthotopic model; conditions: PSMA+ PC3 PIP orthotopic tumor mice, 24 hours post-injection, mean ± SD, n=4
Excerpt: Organs of interest, including the tumor, prostate, seminal vesicles, testes, heart, spleen, lungs, liver, kidneys, adrenal, stomach, small intestine, large intestine, skin, fat, muscle, bone and brain were excised, washed in saline, dried with absorbent tissue, weighed, and counted on a gamma-counter Wizard® 1480 well-type automatic gamma counter (PerkinElmer Inc.; Shelton, Conn.). Radioactivity measured in each organ was decay-corrected and expressed as the percentage of the injected dose per gram of tissue (% ID/g).

PSMA [5] = target: T1, PSMA; experiment: Fluorescence-based PSMA inhibition assay (NAAG hydrolysis by LNCaP cell lysates, Amplex Red); format: biochemical; conditions: 4 μM NAAG, Cheng-Prusoff conversion, n=3
Protocol: Briefly, lysates of LNCaP cells (25 μL in 0.1 M Tris-HCl, pH 8.0) were incubated with the serial dilutions of the test compounds (in 12.5 μL of 0.1 M Tris-HCl, pH 8.0) in the presence of 4 μM N-acetylaspartylglutamate (NAAG) (in 12.5 μL of 0.1 M Tris-HCl, pH 8.0) for 120 minutes. The reaction mixtures were incubated with the working solution (50 μL) of the Amplex Red Glutamic Acid Kit (Molecular Probes Inc., Eugene, Oreg.) for 60 minutes. The amount of glutamate released from NAAG hydrolysis by the LNCaP lysates was determined by measuring the fluorescence generated from the reactions using the Cytation 5 plate reader (BioTek, Winooski, Vt.) with excitation at 545 nm and emission at 590 nm. […] Enzyme inhibitory constants (Ki values) were generated using the Cheng-Prusoff conversion. […] Data analysis was performed using GraphPad Prism software (n=3).
Target sequence in this assay (Q04609 whole entry): as the sequence (Q04609 whole entry, looked up) above

PSMA+ PC3 PIP cells = format: cell-based; conditions: flow cytometry, time-dependent
[6] = system: PSMA+ PC3 PIP and PSMA− PC3 flu subcutaneous tumors; conditions: 20 nmol intravenous; for tumor accumulation, whole-animal in vivo fluorescence imaging: 24 hours post-administration; for ex vivo organ distribution / clearance route: 24 hours, ex vivo fluorescence
PSMA+ PC3 PIP tumor = experiment: In vivo PSMA inhibition with excess […], ex vivo tumor fluorescence; set-up: species or system athymic male nude mice; conditions: 15 nmol LC-Pyro intravenous, 24 hours post-injection
[7] = system: PSMA+ PC3 PIP subcutaneous tumor
[8] = system: low-risk, localized prostate cancer; conditions: vascular targeted PDT, cited from earlier work
[9] = LC-Pyro+Laser group, 24 hours post-PDT

SMILES: C=Cc1c(C)c2cc3nc(c4c5[nH]c(cc6nc(cc1[nH]2)C(C)=C6CC)c(C)c5C(=O)C4)[C@@H](CCC(=O)N[C@H](CCCCNC(=O)CCCCCCC(=O)NCCCC[C@H](NC(=O)N[C@@H](CCC(=O)O)C(=O)O)C(=O)O)C(N)=O)[C@H]3C [SC-Pyro]
- Ki (PSMA [1]): 0.2 nM

SMILES: C=Cc1c(C)c2cc3nc(c4c5[nH]c(cc6nc(cc1[nH]2)C(C)=C6CC)c(C)c5C(=O)C4)[C@@H](CCC(=O)NCC(=O)NC(CC(=O)O)C(=O)NC(CCC(=O)O)C(=O)NC(C(=O)NC(CC(=O)O)C(=O)NCC(=O)NC(CO)C(=O)NCC(=O)NC(CCCCNC(=O)CCCCCCC(=O)NCCCC[C@H](NC(=O)N[C@@H](CCC(=O)O)C(=O)O)C(=O)O)C(N)=O)C(C)C)[C@H]3C (some centres unmarked) [LC-Pyro] (X1-G[ξD][ξE][ξV][ξD]G[ξS]G[ξK](X2)-NH2; N-terminus and C-terminus assumed)
- Ki (PSMA [1]): 0.088 nM
- uptake in metastatic nodules, in situ fluorescence imaging [2]: selective uptake
- plasma circulation time, fold longer than SC-Pyro (single lysine linker analog) ([3]; BALB/c mice, intravenous): 8.5 fold
- half-life ([3]; mouse, in vivo, iv, read-out: t1/2, fast (plasma, two-compartment model) (converted)): 0.5 h
- half-life ([3]; mouse, in vivo, iv, read-out: t1/2, slow (plasma half-life, two-compartment model) (converted)): 10 h
- biodistribution, Tumor [4]: 9.74 % ID/g
- Ki inhibitory activity against PSMA (PSMA [5]): sub-nanomolar
- selectivity of uptake in PSMA+ PC3 PIP vs PSMA− PC3 flu cells (PSMA+ PC3 PIP cells): nonselective cell-penetrating properties
- tumor accumulation, whole-animal in vivo fluorescence imaging [6]: selective accumulation to the PSMA+ after 24 hours
- ex vivo organ distribution / clearance route [6]: liver and kidney clearance
- accumulation in excised PSMA+ PC3 PIP tumors with DCIBzL (PSMA blocker) injected 30 minutes beforehand (PSMA+ PC3 PIP tumor): less accumulation
- therapeutic effect without laser exposure ([7]; LC-Pyro only, 50 nmol intravenous): No therapeutic effect
- skin phototoxicity upon daylight exposure ([7]; LC-Pyro with no laser treatment, 50 nmol intravenous): no sign of skin phototoxicity
- body weight ([7]; LC-Pyro+Laser group): no decrease in body weight
- H&E staining of tumor sections [7, 9]: significant damage of tissue architecture
- TUNEL staining of tumor sections [7, 9]: significant cell death
- tumor regrowth after day 22 ([7]; LC-Pyro+Laser group, n=4): tumor regrowth was observed in two animals
- residual or recurrent disease 44 days post-PDT ([7]; LC-Pyro+Laser group, the two remaining animals): no signs of residual or recurrent disease
- tumor growth ([7]; LC-Pyro+Laser: 30 nmol intravenous, 671-nm laser 100 J/cm^2 at 6 hours, single dose, n=4): significant tumor growth inhibition

SMILES: CC[C@H]1c2cc3[n-]c(c(CC(=O)OC)c4nc(cc5[n-]c(cc(n2)[C@@H]1C)c(C(C)=O)c5C)[C@@H](C)[C@@H]4CCC(=O)[O-])c(C(=O)NCCS(=O)(=O)[O-])c3C.[H+].[H+].[Pd+2] [padeliporfin]
- patients with disease-free biopsy ([8]; 28% with standard-of-care): 49%
- percentage of patients with progressive disease ([8]; 58% with standard-of-care): 28%

SMILES: C=Cc1c(C)c2cc3nc(c4c5[nH]c(cc6nc(cc1[nH]2)C(C)=C6CC)c(C)c5C(=O)C4)[C@@H](CCC(=O)N[C@H](CCCCNC(=O)CCCCCCC(=O)NCCCC[C@H](NC(=O)N[C@@H](CCC(=O)O)C(=O)O)C(=O)O)C(N)=O)[C@@H]3C [SC-Pyro]
- t1/2, slow (plasma half-life, two-compartment model) ([3]; mouse, in vivo, iv): 1.17 h
- Ki inhibitory activity against PSMA (PSMA [5]): sub-nanomolar
- tumor accumulation, whole-animal in vivo fluorescence imaging [6]: negligible accumulation within both the PSMA− and PSMA+ tumors
- ex vivo organ distribution / clearance route [6]: metabolized and collected in the gallbladder
